In PMC10065799, “High-throughput profiling of sequence recognition by tyrosine kinases and SH2 domains using bacterial peptide display” (eLife, 2023):
Blank lines part the entries; values can stand above or below the sequence they belong to.

Assays:
EPHB2 kinase domain = experiment: pTyr-Var library bacterial peptide display kinase screen (enrichment scores); format: biochemical, human; conditions: for Screen: sheet EPHB2;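 on screen: log2 fold change in enrichment of variant over reference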
Fer kinase domain = experiment: as above; format: biochemical, mouse; conditions: for Screen: sheet "Fer"
c-Src kinase domain = c-Src kinase domain (Homo sapiens, UniProt P12931); experiment: as above; format: biochemical; conditions: for Screen: sheet "Src";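 on c-Src hit?: Hit requires p below 0.05 and at least twofold variant vs reference change plus filters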;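 on screen: log2 fold change in enrichment of variant over reference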
EPHB1 kinase domain = experiment: as above; format: biochemical, human; conditions: for Screen: sheet EPHB1, effect of the variant peptide relative to its reference peptide in the pTyr-Var library screen (enrichment scores)
MERTK kinase domain = experiment: as above; format: biochemical, human
Grb2 SH2 domain = experiment: pTyr-Var library SH2 domain screen with SH2-dynabeads (enrichment scores)
Hck kinase domain = experiment: pTyr-Var library bacterial peptide display kinase screen (enrichment scores); format: biochemical, human
FGFR3 kinase domain = experiment: as above; format: biochemical, human
FGFR1 kinase domain = experiment: as above; format: biochemical, human
Fes = experiment: as above; format: biochemical
[1] = tested on: 4G10 Platinum pan-phosphotyrosine antibody; experiment: Phosphorylated pTyr-Var library selection with biotinylated pan-phosphotyrosine antibody; format: binding, mouse; conditions: enrichment score, sheet SH2-vs-peptide
Experimental: After the desired time of library phosphorylation, kinase activity was quenched with 25 mM EDTA and the cells were washed with PBS containing 0.2% BSA. Kinase-treated cells were then labeled with a 1:1000 dilution of biotinylated 4G10 Platinum anti-phosphotyrosine antibody (Millipore) for an hour on ice and washed with PBS containing 0.1% BSA and 2 mM EDTA (isolation buffer). The cells were finally resuspended in PBS containing 0.1% BSA. The phosphorylated, antibody-labeled cells were then mixed with magnetic beads from Dynabeads FlowComp Flexi kit (Invitrogen), at a ratio of 37.5 μL of washed beads per 50 μL of cell suspension, diluted into 450 μL of isolation buffer. The suspension was rotated at 4 °C for 30 minutes, then 375 μL of isolation buffer was added and the beads were separated from the bulk solution on a magnetic rack. The beads were washed once with 1 mL of isolation buffer, and then the supertantant were removed by aspiration. […] The bead/lysate mixture was centrifuged to pellet the beads and the mixture was stored at -20 °C.

SHP2 C-SH2 domain = experiment: pTyr-Var library SH2 domain screen with SH2-dynabeads (enrichment scores)
c-Src SH2 domain = c-Src SH2 domain (Homo sapiens, UniProt P12931); experiment: as above; conditions: sheet c-Src
Jak2 = experiment: pTyr-Var library bacterial peptide display kinase screen (enrichment scores); format: biochemical, human
c-Abl kinase domain = target: T1, c-Abl kinase domain (Mus musculus, UniProt P00520); experiment: as above; format: biochemical;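 on c-Abl hit?: Hit requires p below 0.05 and at least twofold variant vs reference change plus filters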;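 on screen: log2 fold change in enrichment of variant over reference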
T1 sequence (P00520 242-493 limits assumed): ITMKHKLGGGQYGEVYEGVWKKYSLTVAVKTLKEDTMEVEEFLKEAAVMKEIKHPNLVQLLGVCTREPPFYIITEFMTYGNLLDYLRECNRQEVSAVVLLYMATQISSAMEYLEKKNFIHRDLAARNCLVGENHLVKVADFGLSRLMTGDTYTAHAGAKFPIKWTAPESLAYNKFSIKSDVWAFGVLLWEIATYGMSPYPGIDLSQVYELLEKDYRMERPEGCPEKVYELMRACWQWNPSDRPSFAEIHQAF

AncSZ kinase domain = experiment: as above; format: biochemical;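 on AncSZ hit?: Hit requires p below 0.05 and at least twofold variant vs reference change plus filters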
Fyn kinase domain = experiment: as above; format: biochemical, human
[2] = effect of variant peptide relative to its reference peptide in the pTyr-Var library screen (enrichment scores)
[3] = value of the variant peptide against its reference peptide in the pTyr-Var library screen with Fer
[4] = variant peptide versus its reference peptide in the pTyr-Var library screen
[5] = effect of the variant peptide relative to its reference peptide in the pTyr-Var library screen
[6] = mean of log2(variant) minus mean of log2(reference)
[7] = mean of log2 enrichment of variant peptide, n = 4
[8] = pTyr-Var library, variant peptide enrichment, mean of n = 4
[9] = pTyr-Var library, enrichment score, replicate 1
[10] = pTyr-Var library, enrichment score, replicate 3
[11] = pTyr-Var library, enrichment score, replicate 4
[12] = variant versus reference peptide, significant hit TRUE/FALSE
[13] = mean of log2 of enrichment over R1-R4
[14] = variant versus reference peptide
[15] = mean of log2 enrichment of variant peptide, n = 5
[16] = pTyr-Var library, variant peptide enrichment, mean of n = 5
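Wherever Fer hit? is given: Hit requires p below 0.05 and at least twofold variant vs reference change plus filters.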

Sequence: EDEGLYTVRVP [MYOM3_Y343_M344T]
Screen (EPHB2 kinase domain; [2]): -1.314 | Screen (Fer kinase domain; [3]): -0.4796 | Screen (c-Src kinase domain; [4]): -0.00676 | Screen (EPHB1 kinase domain): -1.202

Screen (EPHB2 kinase domain; [2]): 1.971 | Screen (Fer kinase domain; variant peptide relative to its reference peptide, pTyr-Var library screen enrichment): 1.596 | Screen (EPHB1 kinase domain): 2.46
Sequence: RGESFYQDTMN [RARS_Y338_R341T]

Sequence: HLEKKYVHRDS [CSF1R_Y708_R710H]
Screen (EPHB2 kinase domain; [2]): -2.097 | Screen (Fer kinase domain; [3]): -0.7741 | Screen (c-Src kinase domain; [5]): -3.671 | Screen (EPHB1 kinase domain): -1.586

Sequence: MKVPLYETPAG [PGM5_Y358_V357L]
Screen (EPHB2 kinase domain; [2]): 0.6636 | Screen (Fer kinase domain; [3]): 0.5188 | Screen (c-Src kinase domain; [4]): -1.534 | Screen (EPHB1 kinase domain): 0.8032

Sequence: QNAGDYFDLFG [PTPN11_Y62_T59A_YF]
Screen (EPHB2 kinase domain; [2]): -0.3726 | Screen (c-Src kinase domain; [4]): -0.3977 | Screen (EPHB1 kinase domain): -0.1063

Sequence: HNLDFYKQTTN [FGFR3_Y648_K650Q_YF]
Screen (EPHB2 kinase domain; [2]): -1.53 | Screen (Fer kinase domain; [3]): -2.104 | Screen (c-Src kinase domain; [5]): -2.522 | Screen (EPHB1 kinase domain): -1.421

Sequence: LHVGFYESDVM [A2M_Y708_R704H]
difference (MERTK kinase domain; [6]): -1.201 | mean of log2(variant) (MERTK kinase domain; [7]): 0.1586 | var. mean (MERTK kinase domain; [8]): 1.154 | difference (Grb2 SH2 domain; Grb2 SH2, mean of log2(variant) minus mean of log2(reference)): 0.0213 | mean of log2(variant) (Grb2 SH2 domain; Grb2 SH2, mean of log2 enrichment of variant, R1-R3): -0.08185 | hit? (Grb2 SH2 domain; Grb2 SH2, variant versus reference significant hit call): FALSE | var. mean (Grb2 SH2 domain; variant peptide enrichment score, Grb2 SH2, mean of R1-R3): 0.9505 | difference (EPHB2 kinase domain; [6]): 0.5535 | mean of log2(variant) (EPHB2 kinase domain; [7]): 0.1669 | var. mean (EPHB2 kinase domain; [8]): 1.142 | Hck enrich. R1 (Hck kinase domain; [9]): 0.9181 | Hck enrich. R3 (Hck kinase domain; [10]): 0.8034 | Hck enrich. R4 (Hck kinase domain; [11]): 0.2649 | Hck hit? (Hck kinase domain; [12]): FALSE | Fer mean of log2(enrichment) (Fer kinase domain; [13]): 0.8907 | Fer enrich. R1 (Fer kinase domain; [9]): 2.223 | Fer enrich. R3 (Fer kinase domain; [10]): 2.063 | Fer enrich. R4 (Fer kinase domain; [11]): 1.22 | Screen (Fer kinase domain; [3]): 0.2498 | Fer difference (mean log2 variant - mean log2 reference) (Fer kinase domain; [14]): 0.2498 | Fer hit? (Fer kinase domain; [12]): FALSE | difference (FGFR3 kinase domain; [6]): -1.255 | mean of log2(variant) (FGFR3 kinase domain; [15]): 0.01497 | var. mean (FGFR3 kinase domain; [16]): 1.21 | c-Src mean of log2(enrichment) (c-Src kinase domain; [13]): -0.6428 | c-Src enrich. R1 (c-Src kinase domain; [9]): 0.8102 | c-Src enrich. R3 (c-Src kinase domain; [10]): 0.4328 | c-Src enrich. R4 (c-Src kinase domain; [11]): 0.9633 | c-Src difference (mean log2 variant - mean log2 reference) (c-Src kinase domain; [14]): -1.034 | c-Src hit? (c-Src kinase domain; [12]): FALSE | difference (EPHB1 kinase domain; [6]): -0.4797 | mean of log2(variant) (EPHB1 kinase domain; [7]): 0.4103 | var. mean (EPHB1 kinase domain; [8]): 1.406 | Screen (EPHB1 kinase domain): -0.4797 | difference (FGFR1 kinase domain; [6]): -0.559 | mean of log2(variant) (FGFR1 kinase domain; [15]): -0.3446 | var. mean (FGFR1 kinase domain; [16]): 0.8886 | Fes mean of log2(enrichment) (Fes; mean of log2 of enrichment over R1-R6): 0.6236 | Fes difference (mean log2 variant - mean log2 reference) (Fes; [14]): -0.8632 | 4G10 (mean) [1]: 1.221 | difference (SHP2 C-SH2 domain; SHP2-C SH2, mean of log2(variant) minus mean of log2(reference)): -0.5777 | mean of log2(variant) (SHP2 C-SH2 domain; SHP2-C SH2, mean of log2 enrichment of variant, R1-R3): -0.5659 | hit? (SHP2 C-SH2 domain; SHP2-C SH2, variant versus reference significant hit call): FALSE | var. mean (SHP2 C-SH2 domain; variant peptide enrichment score, SHP2-C SH2, mean of R1-R3): 0.7213 | difference (c-Src SH2 domain; [6]): 0.05278 | mean of log2(variant) (c-Src SH2 domain; mean of log2 enrichment of variant peptide, R1-R3): 2.054 | var. mean (c-Src SH2 domain; variant peptide, mean of R1-R3): 4.231 | Jak2 mean of log2(enrichment) (Jak2; mean of log2 of enrichment over R1-R3): 0.3892 | Jak2 enrich. R1 (Jak2; [9]): 1.336 | Jak2 enrich. R3 (Jak2; [10]): 1.016 | Jak2 difference (mean log2 variant - mean log2 reference) (Jak2; [14]): -0.5933 | Jak2 hit? (Jak2; [12]): FALSE | Screen (c-Abl kinase domain; fig5-data2, sheet "Abl", Screen for the variant/reference peptide pair, pTyr-Var library): -1.318 | c-Abl mean of log2(enrichment) (c-Abl kinase domain; [13]): -0.4279 | c-Abl enrich. R1 (c-Abl kinase domain; [9]): 0.51 | c-Abl enrich. R3 (c-Abl kinase domain; [10]): 0.9195 | c-Abl enrich. R4 (c-Abl kinase domain; [11]): 0.7727 | c-Abl hit? (c-Abl kinase domain; [12]): FALSE | AncSZ mean of log2(enrichment) (AncSZ kinase domain; mean of log2 of enrichment over R1-R5): 0.1983 | AncSZ enrich. R1 (AncSZ kinase domain; [9]): 0.795 | AncSZ enrich. R3 (AncSZ kinase domain; [10]): 1.048 | AncSZ enrich. R4 (AncSZ kinase domain; [11]): 1.095 | AncSZ enrich. R5 (AncSZ kinase domain; pTyr-Var library, enrichment score, replicate 5): 1.306 | AncSZ difference (mean log2 variant - mean log2 reference) (AncSZ kinase domain; [14]): -1.317 | AncSZ hit? (AncSZ kinase domain; [12]): FALSE | Fyn mean of log2(enrichment) (Fyn kinase domain; [13]): -0.6247 | Fyn enrich. R1 (Fyn kinase domain; [9]): 1.119 | Fyn enrich. R3 (Fyn kinase domain; [10]): 0.683 | Fyn enrich. R4 (Fyn kinase domain; [11]): 0.4956 | Fyn difference (mean log2 variant - mean log2 reference) (Fyn kinase domain; [14]): -0.4761 | Fyn hit? (Fyn kinase domain; [12]): FALSE

Screen (EPHB2 kinase domain; [2]): -0.0869 | Screen (Fer kinase domain; [3]): 0.7012 | Screen (EPHB1 kinase domain): -0.05786
Sequence: DCVRMYELVHR [GLE1_Y135_G130D]

Sequence: RRIHSYRSHLW [VHL_Y112_G114S]
Screen (EPHB2 kinase domain; effect of the variant relative to its reference peptide in the pTyr-Var library screen): -0.1154 | Screen (c-Src kinase domain; [4]): -3.054 | Screen (variant relative to reference peptide, measured in the pTyr-Var library screen) (EPHB1 kinase domain; sheet "EPHB1", variant seq vs reference seq, bacterial peptide display enrichment): -1.453 | Screen (c-Abl kinase domain; sheet "Abl", effect of variant peptide relative to its reference peptide in pTyr-Var library screen (enrichment)): -2.663

Sequence: AVISVYDLVAF [PSEN1_Y256_V261F]
Screen (EPHB2 kinase domain; [2]): 0.9519 | Screen (Fer kinase domain; [3]): 0.2851 | Screen (c-Src kinase domain; [4]): 0.3764 | Screen (EPHB1 kinase domain): 0.6578

Screen (EPHB2 kinase domain; [2]): -0.9388 | Screen (EPHB1 kinase domain): -0.7851
Sequence: LLILEYAKFGS [RET_Y806_V804L_YF]
